Where a name gives a salt, the structure may show the parent alone.
tested on: THP-1 cells; experiment: THP-1 Soluble Protein Assay (LPS-stimulated; ELISA of TNF-a, TNF-R p75/80, TNF-R p55/60, IL-8); assay type: cell-based, human; details: 3 µM
Description: Each vial of cells are cultured for about two weeks prior to being used for an assay and then are used for only 4 to 6 weeks to screen compounds.
Plates are placed into an incubator set at 5% CO2 and at 37° C. After 4 hours of incubation, 300 ml/well of tissue culture supernatant (TCS) is removed for use in an TNF-a ELISA.
Percent change in each soluble protein evaluated from the "vehicle positive control" was calculated for each compound concentration with the following formula: % Change =(pg/ml (compound) - pg/ml (veh pos control))/(pg/ml (veh pos control) - pg/ml (veh neg control))x 100 [formula]
For the soluble protein (TNF-a, p75/80, p55/60, IL-8) studies under stimulated conditions, the mean pg/ml of duplicate wells were determined and the results expressed as percent change from "vehicle positive control".

CC#CCOc1ccc(S(=O)(=O)N2CC[S+]([O-])C(C)(C)C2C(=O)NO)cc1 (single isomer, unassigned) [Example 255] was tested, and the “THP % inhibition @ 3 µM” value was 95%.

same assay, conditions: Homo sapiens, THP-1, 3 µM; read-out: THP % Inhibition @ 3µM

Compared with CC#CCOc1ccc(S(=O)(=O)N2C[C@@H](CNC(=O)OC(C)(C)C)SC(C)(C)[C@@H]2C(=O)NO)cc1 [Example 273, tert-Butyl{(2R,5S)-4-{[4-(2-butynyloxy)phenyl]sulfonyl}-5-[(hydroxyamino)carbonyl]-6,6-dimethylthiomorpholinyl}methylcarbamate], CC#CCOc1ccc(S(=O)(=O)N2C[C@H](CC(=O)O)SC(C)(C)[C@@H]2C(=O)NO)cc1 [Example 278, {(2S,5S)-4-{[4-(2-Butynyloxy)phenyl]sulfonyl}-5-[(hydroxyamino)carbonyl]-6,6-dimethylthiomorpholinyl}acetic acid] is lower in inhibition at 3 µM: 90% for the first, 89% for the second.

Compared with CC#CCOc1ccc(S(=O)(=O)N2C[C@@H](CN)SC(C)(C)[C@@H]2C(=O)NO)cc1 [Example 275, (3S,6R)-Trans-6-(aminomethyl)-4-{[4-(2-butynyloxy)phenyl]sulfonyl}-N-hydroxy-2,2-dimethyl-3-thiomorpholinecarboxamide hydrochloride], CC#CCOc1ccc(S(=O)(=O)N2C[C@H](CC(=O)N3CCOCC3)SC(C)(C)[C@@H]2C(=O)NO)cc1 [Example 282, (3S,6S)-4-{[4-(2-Butynyloxy)phenyl]sulfonyl}-N-hydroxy-2,2-dimethyl-6-[2-(4-morpholinyl)-2-oxoethyl]-3-thiomorpholinecarboxamide] is higher in inhibition at 3 µM: 82% for the first, 91% for the second.

First: CC#CCOc1ccc(S(=O)(=O)N2[C@H](C)CSC(C)(C)[C@@H]2C(=O)NO)cc1 [Example 271, (3S,5R)-4-{[4-(2-Butynyloxy)phenyl]sulfonyl}-N-hydroxy-2,2,5-trimethyl-3-thiomorpholinecarboxamide]
Second: CC#CCOc1ccc(S(=O)(=O)N2CCCS(=O)(=O)C[C@@H]2C(=O)NO)cc1 [Example 175]
The inhibition at 3 µM of the first is lower: 82% for the first, 83% for the second.

same assay, conditions: Homo sapiens, THP-1, read-out: THP % inhibition @ 3 µM

For CC1(C)SCCN(S(=O)(=O)c2ccc(OCC#CCO)cc2)C1C(=O)NO (centres unmarked) [Example 61, 4-[4-(4-Hydroxy-but-2-ynyloxy)-benzenesulfonyl]-2,2-dimethyl-thiomorpholine-3-carboxylic acid hydroxyamide], the inhibition at 3 µM was 89%.

same assay, conditions: Homo sapiens, THP-1, read-out: THP % inhibition @ 3 µM, 3 µM

Compared with CC1(C)SCCN(S(=O)(=O)c2ccc(OCC#CC#CCO)cc2)[C@H]1C(=O)NO [Example 262, (3S)-N-Hydroxy-4-({4-[(6-hydroxy-2,4-hexadiynyl)oxy]phenyl}sulfonyl)-2,2-dimethyl-3-thiomorpholine carboxamide], C#CC#CCOc1ccc(S(=O)(=O)N2CCSC(C)(C)[C@@H]2C(=O)NO)cc1 [Example 263, (3S)-N-Hydroxy-2,2-dimethyl-4-{[4-(2,4-pentadiynyloxy)phenyl]sulfonyl}-3-thiomorpholine carboxamide] is higher in inhibition at 3 µM: 81% for the first, 88% for the second.

Going from CC#CCOc1ccc(S(=O)(=O)N2CCN(C(=O)Nc3ccc(F)cc3)CC2C(=O)NO)cc1 (centres unmarked) [Example 222, 4-{[4-(2-Butynyloxy)phenyl]sulfonyl}-N-1-(4-fluorophenyl)-N-3-hydroxy-1,3-piperazinedicarboxamide] to CC#CCOc1ccc(S(=O)(=O)N2CCN(C(C)=O)CC2C(=O)NO)cc1 (centres unmarked) [Example 224, 4-Acetyl-1-(4-but-2-ynyloxy-benzenesulfonyl)-piperazine-2-carboxylic acid hydroxyamide], the inhibition at 3 µM rises from 61% to 81%.

First: CC#CCOc1ccc(S(=O)(=O)N(C)C(C(=O)NO)C(C)(C)SCCC)cc1 (centres unmarked) [Example 151, 2-[(4-But-2-ynyloxy-benenesulfonyl)-methyl-amino]-N-hydroxy-3-methyl-3-propylsulfanyl-butyramide]
Second: CC#CCOc1ccc(S(=O)(=O)N(C)C(C(=O)NO)C(C)(C)SCCN2CCCC2)cc1 (centres unmarked) [Example 143, 2-({[4-(2-Butynyloxy)phenyl]sulfonyl)(methyl)amino]-N-hydroxy-3-methyl-3-{[2(1-pyrrolidinyl)ethyl]sulfanyl}butanamide]
The inhibition at 3 µM of the first is lower: 82% for the first, 86% for the second.

First: CC#CCOc1ccc(S(=O)(=O)N(Cc2ccc(OCCN3CCCCC3)cc2)C(C(=O)NO)C2CCCCC2)cc1 (centres unmarked) [Example 117, 2-{(4-But-2-ynyloxy-benzenesulfonyl)-[4-(2-piperidin-1-yl-ethoxy)-benzyl]-amino}-2-cyclohexyl-N-hydroxy-acetamide]
Second: CC#CCOc1ccc(S(=O)(=O)N(C)C(C(=O)NO)C2CCCCC2)cc1 (centres unmarked) [Example 115, 2-[(4-But-2-ynyloxy-benzenesulfonyl)-methyl-amino]-2-cyclohexyl-N-hydroxy-acetamide]
The inhibition at 3 µM of the first is lower: 88% for the first, 89% for the second.

First: CC1(C)SCCN(S(=O)(=O)c2ccc(OCC#CCCCCN)cc2)[C@H]1C(=O)NO [Example 253, (3S)-4-({4-[(7-Amino-2-heptynyl)oxy]phenyl}sulfonyl)-N-hydroxy-2,2-dimethyl-3-thiomorpholine carboxamide]
Second: CC1(C)SCCN(S(=O)(=O)c2ccc(OCC#CCCCCO)cc2)[C@H]1C(=O)NO [Example 269, (3S)-N-Hydroxy-4-({4-[(7-hydroxy-2-heptynyl)oxy]phenyl}sulfonyl)-2,2-dimethyl-3-thiomorpholinecarboxamide]
The inhibition at 3 µM of the first is lower: 37% for the first, 77% for the second.

Going from CC#CCOc1ccc(S(=O)(=O)N2CCN(C(=O)N(C(C)C)C(C)C)CC2C(=O)NO)cc1 (centres unmarked) [Example 218, 4-(4-But-2-ynyloxy-benzenesulfonyl)-piperazine-1,3-dicarboxylic acid 1-diisopropylamide 3-hydroxyamide] to CC#CCOc1ccc(S(=O)(=O)N2CCN(C(=O)CN)CC2C(=O)NO)cc1 (centres unmarked) [Example 230, 4-Aminoacetyl-1-(4-but-2-ynyloxy-benzenesulfonyl)-piperazine-2-carboxylic acid hydroxyamide], the inhibition at 3 µM falls from 56% to 27%.

Compared with CN(CC#CCOc1ccc(S(=O)(=O)N2CCSC(C)(C)C2C(=O)NO)cc1)C(=O)OC(C)(C)C (centres unmarked) [Example 267, tert-butyl 4-[4-({3-[(hydroxyamino)carbonyl]-2,2-dimethyl-4-thiomorpholinyl}sulfonyl)phenoxy]-2-butynyl(methyl)carbamate], CCC#CCOc1ccc(S(=O)(=O)N2CCSC(C)(C)[C@@H]2C(=O)NO)cc1 [Example 259, (3S)-N-Hydroxy-2,2-dimethyl-4-{[4-(2-pentynyloxy)phenyl]sulfonyl}-3-thiomorpholine carboxamide] is higher in inhibition at 3 µM: 15% for the first, 92% for the second.

Compared with CC#CCOc1ccc(S(=O)(=O)N(C)[C@@H](C(=O)NO)[C@H]2CC[C@H](O)CC2)cc1 [Example 130], CC#CCOc1ccc(S(=O)(=O)N(C)[C@@H](C(=O)NO)C2CCC(N(CC)CC)CC2)cc1 (stereo partly drawn) [Example 128, ((2R)-{[4-(2-Butynyloxy)phenyl]sulfonyl}(methyl)amino)[(4-diethylamino)cyclohexyl]-N-hydroxyethamide] is lower in inhibition at 3 µM: 92% for the first, 51% for the second.

First: CC#CCOc1ccc(S(=O)(=O)N[C@@H](C(=O)NO)c2ccc(OCCNC(=O)OC(C)(C)C)cc2)cc1 [Example 199, tert-Butyl 2-{4-[(1R)-1-({[4-(2-butynyloxy)phenyl]sulfonyl}amino)-2-(hydroxyamino)-2-oxoethyl]phenoxy}ethylcarbamate]
Second: CC#CCOc1ccc(S(=O)(=O)NC(C(=O)NO)c2ccc(OCCN(C)C(=O)OC(C)(C)C)cc2)cc1 (centres unmarked) [Example 203, tert-Butyl 4-(2-{4-[1-({[4-{2-butynyloxy)phenyl]sulfonyl}amino)-2-(hydroxyamino)-2-oxoethyl)phenoxy]ethyl)-(methyl)carbamate]
The inhibition at 3 µM of the first is higher: 84% for the first, 73% for the second.

First: CC#CCOc1ccc(S(=O)(=O)N2CCSC3(CCN(C)CC3)C2C(=O)NO)cc1 (centres unmarked) [Example 242, 9-methyl-4-{[4-(2-butynyloxy)phenyl]sulfonyl}-N-hydroxy-1-thia-4,9-diazaspiro[5.5]undecane-5-carboxamide]
Second: CC#CCOc1ccc(S(=O)(=O)N2CCN(C)CC2C(=O)NO)cc1 (centres unmarked) [Example 56, 1-(4-But-2-ynyloxy-benzenesulfonyl)-4-methyl-piperazine-2-carboxylic acid hydroxyamide hydrochloride]
The inhibition at 3 µM of the first is higher: 73% for the first, 32% for the second.

Going from CC#CCOc1ccc(S(=O)(=O)N(Cc2cccnc2)C(C(=O)NO)C(C)C)cc1 (centres unmarked) [Example 114, 2-[(4-But-2-ynyloxy-benzenesulfonyl)-pyridin-3-ylmethyl-amino]-N-hydroxy-3-methyl-butyramide] to CC#CCOc1ccc(S(=O)(=O)N(C)C2(C(=O)NO)CCCCC2)cc1 [Example 136, 1-[{[4-(2-Butynyloxy)phenyl]sulfonyl}(methyl)amino] -N-hydroxycyclohexanecarboxamide], the inhibition at 3 µM falls from 75% to 0%.

Going from CCCCC#CCOc1ccc(S(=O)(=O)N2CCSC(C)(C)C2C(=O)NO)cc1 (centres unmarked) [Example 40, 4-(4-Hept-2-ynyloxy-benzenesulfonyl)-2,2-dimethyl-thiomorpholine-3-carboxylic acid hydroxyamide] to C#CCOc1ccc(S(=O)(=O)N2CCSC(C)(C)[C@@H]2C(=O)NO)cc1 [Example 258, (3S)-N-Hydroxy-2,2-dimethyl-4-{[4-(2-propynyloxy)phenyl]sulfonyl}-3-thiomorpholine carboxamide], the inhibition at 3 µM rises from 82% to 91%.

Compared with CC1(C)SCCN(S(=O)(=O)c2ccc(OCC#CCOCc3ccccc3)cc2)C1C(=O)NO (centres unmarked) [Example 247, 4-[(4-{[4-(Benzyloxy)-2-butynyl]oxy}phenyl)sulfonyl]-N-hydroxy-2,2-dimethyl-3-thiomorpholine carboxamide], CC#CCOc1ccc(S(=O)(=O)N2CCN(C(=O)C3(C)COC(C)(C)OC3)CC2C(=O)NO)cc1 (centres unmarked) [Example 231, 1-{[4-(2-Butynyloxy)phenyl]sulfonyl}-N-hydroxy-4-[(2,2,5-trimethyl-1,3-dioxan-5-yl)carbonyl)-2-piperazinecarboxamide] is higher in inhibition at 3 µM: 57% for the first, 73% for the second.

In the case of CC#CCOc1ccc(S(=O)(=O)NC(C(=O)NO)c2ccc(OCCc3scnc3C)cc2)cc1 (centres unmarked) [Example 208, 2-({[4-(2-Butynyloxy)phenyl]sulfonyl}amino)-N-hydroxy-2-{4-[2-(4-methyl-1,3-thiazol-5-yl)ethoxy]phenyl}acetamide], the inhibition at 3 µM was 74%.

— patent publication EP1144368B1, “ACETYLENIC ALPHA-AMINO ACID-BASED SULFONAMIDE HYDROXAMIC ACID TACE INHIBITORS” (priority 1999, dated 2000)
